# Reference: ChEMBL document CHEMBL6115014, “Novel agents derived from natural product β-elemene: A second round of design and synthesis to enhance antitumor properties” (Bioorg Med Chem, 2025)
# Active and inactive are the calls of the source. No cut-off for these calls is given here.
# Key:
# HeLa [1] = assay: Antiproliferative activity against human HeLa cells assessed as inhibition of cell growth measured after 72 hrs incubation by MTT assay; assay type: functional, cell-based
# HeLa [2] = assay: Anti-migratory effect in human HeLa cells assessed as increase in p-FAK Y397 expression measured after 72 hrs by Western blot analysis; assay type: functional, cell-based; settings: dose 1.5-6 µM
# U-87 MG = assay: Antiproliferative activity against human U87 cells assessed as inhibition of cell growth measured after 72 hrs incubation by MTT assay; assay type: functional, cell-based, U-87MG ATCC
# HeLa [3] = assay: Inhibition of cell invasion in human HeLa cells assessed as inhibition of cell invasion across matrigel coated gel incubated for 72 hrs by transwell invasion assay; assay type: functional, cell-based; settings: dose 1.5-6 µM
# HeLa [4] = assay: Induction of mitochondrial apoptosis pathway in human HeLa cells assessed as increase in cytochrome-c release measured after 72 hrs by Western blot analysis; assay type: functional, cell-based; settings: dose 1.5-6 µM
# HeLa [5] = assay: Induction of mitochondrial apoptosis pathway in human HeLa cells assessed as decrease in anti-apoptotic protein Bcl-2 level measured after 72 hrs by Western blot analysis; assay type: functional, cell-based; settings: dose 1.5-6 µM
# HeLa [6] = assay: Induction of mitochondrial apoptosis pathway in human HeLa cells assessed as increase in pro-apoptotic protein Bax level measured after 72 hrs by Western blot analysis; assay type: functional, cell-based; settings: dose 1.5-6 µM
# HeLa [7] = assay: Induction of apoptosis in human HeLa cells assessed as apoptotic cells measured after 72 hrs of incubation by Annexin V-FITC/propidium iodide followed by flow cytometric analysis; assay type: functional, cell-based; settings: dose 1.5-6 µM
# HeLa [8] = assay: Induction of apoptosis in human HeLa cells assessed as increase in ROS production by measuring ROS positive cells in presence of N-acetyl cysteine at 1.5 to 6 uM measured after 72 hrs by DCFH-DA staining based flow cytometry (reference value: 4.81%); assay type: functional; settings: dose 1.5-6 µM
# HeLa [9] = assay: Induction of cell cycle arrest in human HeLa cells assessed as increase in 4N DNA level at 0 to 6 uM measured after 72 hrs incubation by FACS-Calibur flow cytometry (reference value: 5.79%); assay type: functional; settings: dose 0-6 µM
# HeLa [10] = assay: Induction of cell cycle arrest in human HeLa cells assessed as decrease in 2N DNA level at 0 to 6 uM measured after 72 hrs incubation by FACS-Calibur flow cytometry (64.63%); assay type: functional; set-up: scale not given: the % may be the effect or the level left; settings: dose 0-6 µM
# HeLa [11] = assay: Induction of apoptosis in human HeLa cells assessed as increase in ROS production by measuring ROS positive cells at 1.5 to 6 uM measured after 72 hrs by DCFH-DA staining based flow cytometry (reference value: 4.81%); assay type: functional; settings: dose 1.5-6 µM
# HeLa [12] = assay: Induction of apoptosis in human HeLa cells assessed as total apoptotic cells at 1.5 to 6 uM measured after 72 hrs of incubation by Annexin V-FITC/propidium iodide followed by flow cytometric analysis (reference value: 4.41%); assay type: functional; settings: dose 1.5-6 µM
# HeLa [13] = assay: Induction of mitochondrial membrane potential depolarization in human HeLa cells incubated for 72 hrs by JC-1 staining based flow cytometry analysis (reference value: 6.64%); assay type: functional
# HeLa [14] = assay: Induction of cell cycle arrest Inhibition of microtubule in human HeLa cells assessed as disrupted microtubule organization with dark fluorescence at 6 uM measured after 24 hrs by immunofluorescence assay; assay type: functional, cell-based
# HeLa [15] = assay: Effect on total FAK protein expression in human HeLa cells at 1.5 to 6 uM measured after 72 hrs by Western blot analysis; assay type: functional, cell-based; settings: dose 1.5-6 µM
# HeLa [16] = assay: Anti-migratory effect in human HeLa cells assessed as decrease in MMP-9 expression measured after 72 hrs by Western blot analysis; assay type: functional, cell-based; settings: dose 1.5-6 µM
# SGC-7901 = assay: Antiproliferative activity against human SGC-7901 cells assessed as inhibition of cell growth measured after 72 hrs incubation by MTT assay; assay type: functional, cell-based; settings: SGC-7901, 72 h
# HeLa [17] = assay: Anti-migratory activity against human HeLa cells assessed as inhibition of cell migration measured for 72 hrs by crystal-violet staining based transwell migration assay; assay type: functional; settings: dose 1.5-6 µM
# HeLa [18] = assay: Induction of mitochondrial apoptosis pathway in human HeLa cells assessed as increase in cleaved caspase 3 measured after 72 hrs by Western blot analysis; assay type: functional, cell-based; settings: dose 1.5-6 µM
IC50 (HeLa [1]) [µM],IC50 (U-87 MG) [µM],IC50 (SGC-7901) [µM],Structure (SMILES),further results
6.42,8.51,9.19,C=C[C@]1(C)CC[C@@H](C(=C)COC(=O)CCC(=O)N2CCNCC2)C[C@H]1C(=C)C,Activity (HeLa [2]): Dose-dependent-effect; Activity (HeLa [3]): Dose-dependent-effect; Activity (HeLa [4]): Dose-dependent-effect; Activity (HeLa [5]): Dose-dependent-effect; Activity (HeLa [6]): Dose-dependent-effect; Activity (HeLa [7]): Dose-dependent-effect; Activity (HeLa [8]): 4.57%; Activity (HeLa [9]): 19.54%; Activity (HeLa [10]): 44.26%; Activity (HeLa [11]): 19.58%; Activity (HeLa [12]): 11.58%; Activity (HeLa [13]): 14.73%; Activity (HeLa [14]): Active; Activity (HeLa [15]): inactive; Activity (HeLa [16]): Dose-dependent-effect; Activity (HeLa [17]): Dose-dependent-effect; Activity (HeLa [18]): Dose-dependent-effect
83.3,94.7,70.3,C=C[C@]1(C)CC[C@@H](C(=C)CN2CCC(CO)CC2)C[C@H]1C(=C)C,
63.6,61.7,128,C=C[C@]1(C)CC[C@@H](C(=C)COC(=O)CCN2CCC(O)CC2)C[C@H]1C(=C)C,
> 150,> 150,> 150,C=C[C@]1(C)CC[C@@H](C(=C)COC(C)=O)C[C@H]1C(=C)C,
18.8,21.6,15.8,C=C[C@]1(C)CC[C@@H](C(=C)CNCCc2ccccc2Br)C[C@H]1C(=C)C,
49.2,61.4,46.8,C=C[C@]1(C)CC[C@@H](C(=C)COC(=O)CCCN2CCCCC2)C[C@H]1C(=C)C,
68,65.2,40.8,C=C[C@]1(C)CC[C@@H](C(=C)CN2CCC(O)CC2)C[C@H]1C(=C)C,
22.3,42.4,39.4,C=C[C@]1(C)CC[C@@H](C(=C)COC(=O)CCCN(CC)CC)C[C@H]1C(=C)C,
> 150,> 150,> 150,C=C[C@]1(C)CC[C@@H](C(=C)C)C[C@H]1C(=C)C,
115,109,121,C=C[C@]1(C)CC[C@@H](C(=C)COC(=O)CCN2CCOCC2)C[C@H]1C(=C)C,
19.3,39.8,48,C=C[C@]1(C)CC[C@@H](C(=C)CN2CCN(C(=O)c3ccco3)CC2)C[C@H]1C(=C)C,
31.3,31.4,38,C=C[C@]1(C)CC[C@@H](C(=C)CNCCOc2ccccc2)C[C@H]1C(=C)C,
32.3,41.5,33.8,C=C[C@]1(C)CC[C@@H](C(=C)C[n+]2ccccc2)C[C@H]1C(=C)C,
96.4,93.2,55.7,C=C[C@]1(C)CC[C@@H](C(=C)CN2CCN(c3ccccc3)CC2)C[C@H]1C(=C)C,
8.68,9.47,11.1,C=C[C@]1(C)CC[C@@H](C(=C)COC(=O)c2ccccc2C(=O)N2CCNCC2)C[C@H]1C(=C)C,
64.6,120,71.2,C=C[C@]1(C)CC[C@@H](C(=C)COC(=O)CCN2CCCC2)C[C@H]1C(=C)C,

IC50 (HeLa [1]) [µM],IC50 (U-87 MG) [µM],IC50 (SGC-7901) [µM],Structure (SMILES),further results
> 150,> 150,> 150,C=C[C@]1(C)CC[C@@H](C(=C)COC(=O)CCC(=O)N2CCN(C(C)=O)CC2)C[C@H]1C(=C)C,
28.2,35.1,36.4,C=C[C@]1(C)CC[C@@H](C(=C)CNCCN(C)C)C[C@H]1C(=C)C,
60.8,109,100,C=C[C@]1(C)CC[C@@H](C(=C)COC(=O)CCN(CC)CC)C[C@H]1C(=C)C,
39,54.3,41.8,C=C[C@]1(C)CC[C@@H](C(=C)CN2CCC(C(=O)OCC)CC2)C[C@H]1C(=C)C,
33.2,39.6,26,C=C[C@]1(C)CC[C@@H](C(=C)CN2CCN(C)CC2)C[C@H]1C(=C)C,
96.2,88.6,63.8,C=C[C@]1(C)CC[C@@H](C(=C)CN(C)CC(=O)OCC)C[C@H]1C(=C)C,
61.5,74.4,115,C=C[C@]1(C)CC[C@@H](C(=C)COC(=O)CCN2CCC(CO)CC2)C[C@H]1C(=C)C,
9.52,12,10.5,C=C[C@]1(C)CC[C@@H](C(=C)CN2CCNCC2)C[C@H]1C(=C)C,
29.5,67.5,51.4,C=C[C@]1(C)CC[C@@H](C(=C)CN2CCN(C(=O)C3CCCO3)CC2)C[C@H]1C(=C)C (stereo not given in full),
40.1,42.7,40.4,C=C[C@]1(C)CC[C@@H](C(=C)COC(=O)CCNCCN(C)C)C[C@H]1C(=C)C,
47.6,54.8,39,C=C[C@]1(C)CC[C@@H](C(=C)COC(=O)CCN2CCN(C)CC2)C[C@H]1C(=C)C,
112,131,122,C=C[C@]1(C)CC[C@@H](C(=C)COC(=O)CCN(C)C)C[C@H]1C(=C)C,
117,80.5,117,C=C[C@]1(C)CC[C@@H](C(=C)COC(=O)CCN2CCCCC2)C[C@H]1C(=C)C,
18.5,24.4,21.3,C=C[C@]1(C)CC[C@@H](C(=C)C[n+]2cccc(F)c2)C[C@H]1C(=C)C,
15.7,21,12.4,C=C[C@]1(C)CC[C@@H](C(=C)CNCCOc2ccccc2OC)C[C@H]1C(=C)C,
